In publication PMC6268373, “Systematic Study of the Physicochemical Properties of a Homologous Series of Aminobisphosphonates” (Molecules, 2012):
In brackets after ≈: the same amount, converted by molar mass. Where two headings read alike, the source gives them in different places. Values belong to the compound of their own block, whether it stands above or below them.

How the values were obtained:
[1] = Aqueous solubility of saturated solution at 21 °C (phosphorus determination by molybdenum blue spectrophotometry); conditions: 21 °C; for solubility at 30 min: water, thermodynamic from solid; for pH of saturated solution: saturated aqueous solution, agitation time 30 min
Experimental: (§1) A Jasco V-530 UV/Vis spectrophotometer was used for phosphorus determination at 880 nm wavelength. Filtered liquid samples were diluted to the appropriate volume with Milli-Q water and were digested with the persulphate oxidation technique in acidic medium at elevated temperature to convert aminobisphosponates to orthophosphate. In an acidic medium, ammonium molybdate and antimony potassium tartrate react with orthophosphate to form a phosphomolybdic acid that is reduced to intensively colored molybdenum blue by ascorbic acid [30].
(§2) The mixture containing an excess of the studied compound was first agitated for predetermined time with magnetic stirrer and before taking the sample mixture was allowed to stand for 24 h without stirring. The sample (about 5 mL) was taken from liquid above the solids, pH was measured and the sample was filtered through 0.2 µm membrane filter to remove any possible insoluble particles. The phosphorus concentration in the filtered sample solution was determined by using the spectrophotometric method described above.

[2] = Thermal analysis (TG/DTA and TGA 7); assay type: physicochemical; conditions: for Td / Td (decomposition onset): air; for Td: 5 °C/min; for Temp. range of 1st cleavage: lower limit taken at 0.5 wt-%; for Td (decomposition onset): average from both instruments, heating rate 5 °C/min
Experimental: Thermal decomposition paths with evaluation of crystal water content were obtained parallel with two instruments; Perkin Elmer STA 6000 thermogravimetric TG/DTA and Perkin Elmer TGA 7 analyzers (Perkin Elmer, Massachusetts, USA). Measurements were carried out in an open platinum crucible (the higher 5 mm crucible was used in TG/DTA and a shallower 2 mm crucible in TGA 7) under air atmosphere (flow rate of 45 mL/min) with a heating rate of 5 °C/min over the temperature range of 25−700 °C. The temperature calibration of STA 6000 was made using melting points of indium (156.60 °C) and zinc (419.5 °C) standards. For TGA 7 magnetic Curie-point calibration technique (Alumel, Ni, Perkalloy, Fe) was used. The weight balance of both instruments was calibrated by measuring a standard weight of 50 mg at room temperature. The sample weights used in the measurements were about 4–8 mg, and for each bisphosphonate, it was attempted to keep the same on both instruments. The melting/dehydration/decomposition behavior of the compounds was also visually monitored using a Stuart Scientific SMP3 melting point apparatus.

[3] = pKa determination with Sirius instrument (PCA200)
[4] = Protonation constants by (traditional) potentiometric titration (TPT), SUPERQUAD; conditions: 0.1 M NaNO3, 25 °C; for pKa: TPT; for logβx ± 3σ, x = 1 (H3L−) / logβx ± 3σ, x = 2 (H4L) / logβx ± 3σ, x = 3 (H5L+) / logβx ± 3σ, x = −1 (HL3−) / logβx ± 3σ, x = −2 (L4−): overall protonation, zero level H2L2−
Excerpt: Results were obtained from […] as overall stability constants (log β values); following the chosen zero level H2L^2−. This zero level H2L^2− was chosen in the calculations to avoid any accumulation of errors of protonation constants at different pH ranges. The log β results for reactions (4) and (5) obtained in the final refinements are listed in Table S3 (see Supporting Information) with error limits (±3σ), number of points/number of titrations and χ^2/Σ statistics.
The details of the experiments using (traditional) potentiometric titration are presented in the Supporting Information. The results of the determination by Sirius instrument are shown in the Supporting Information. Potentiometric titrations of the compounds were performed with the PCA200 apparatus (Sirius Analytical Instruments Ltd, Forest Row, East Sussex, UK).
Table S2. The effect of pH on aqueous solubility (mg/L) of aminoalkylbis(phosphonates) […]
Solubility (g/L) of Compound
Determination of the Protonation Constants Using (traditional) Potentiometric Titration. Reagents:
Aqueous 0.1 M NaOH was prepared from Titrisol ampoules (Merck) and 0.1 M HNO3 from Convol ampoules (BDH). The background solution was prepared by dissolving NaNO3 in deionised water.
The NaNO3 and NaCl used in reference electrode were p.a. grade (Merck). The water used in the dilutions and titration solutions was purified with Milli-RO and Milli-Q water purification systems […]
Potentiometric measurements: The protonation equilibria was studied in aqueous 0.1 M NaNO3 at 25.0 ± 0.1 °C through a series of potentiometric EMF titrations carried out with a Schott-Geräte GmbH […]
The cell arrangement for the measurement of the hydrogen ion concentration [H+] was as follows:
−RE […] equilibrium solution […] GE+ (1) where GE denotes a glass electrode (Schott N2680), and RE is Hg, Hg2Cl2 […] 0.01 M NaCl, 0.09 M NaNO3. Expression (2) is valid assuming that the activity coefficients are constant.
The cell parameter E0 and the liquid junction coefficient jH, valid in acidic solutions, were determined for each titration by adding a known amount of HNO3 to the background electrolyte. The value of the liquid junction coefficient jOH, valid in basic solutions, was determined periodically. Only stable EMF readings were used in the calculations.
During the measurements of the protonation equilibria, aqueous 0.1 M NaOH or 0.1 M HNO3 was […]
Four to eight independent titrations were carried out for each ligand. The number of data points used in […]
Data treatment: Protonation and deprotonation of the ligands were controlled by addition of HNO3 or NaOH. The curves of ZH versus pH were drawn to visualize the experimental data sets. ZH describes the average number of H+ ions added or liberated per mole of ligand and is given by the relationship […]
where CH denotes the total concentration of protons calculated over the zero level H2L2−.
In the evaluation of the equilibrium constants, the following two-component equilibria were utilized:
H2L2− ⇋ H2-xL(2+x)– + xH+ , x = 1–2; β–x (4) xH+ + H2L2− ⇋ Hx+2Lx–2, x = 1–3; βx (5)
Mathematical analysis of the systems involves a search for protonation models and equilibrium constants that best describe the experimental data. The calculations were carried out with the computer […]
1200). The sample standard deviation Σ and the χ2 statistics used as criteria in the selection of the models were those provided by the program. As a means to improve the confidence level, the error limits for log β values determined in this study are reported as three times the standard deviation estimated by the program.
Figure S2. ZH vs. pH for protonation of compounds (a) 1; (b) 2; (c) 3; (d) 4 and (e) 5.

[5] = Effect of temperature on aqueous solubility; conditions: thermodynamic from solid
Experimental: as §1, §2

[6] = cited from earlier work; for logK, pKa3: H2L2− + H+ ⇋ H3L−; for logK, pKa2: H3L− + H+ ⇋ H4L; for logK, pKa4: HL3− + H+ ⇋ H2L2−
[7] = Effect of pH on aqueous solubility; conditions: 21 °C, thermodynamic from solid
Experimental: as §1, §2

[8] = aqueous 0.1 M NaNO3, log K, pKa1 (H4L + H+ ⇋ H5L+), approximate values
[9] = aqueous 0.1 M NaNO3, log K, pKa2 (H3L− + H+ ⇋ H4L)
[10] = aqueous 0.1 M NaNO3, log K, pKa3 (H2L2− + H+ ⇋ H3L−)
[11] = aqueous 0.1 M NaNO3, log K, pKa4 (HL3− + H+ ⇋ H2L2−)
[12] = aqueous 0.1 M NaNO3, log K, pKa5 (L4− + H+ ⇋ HL3−)

solubility at 30 min ([1]; Milli-Q water, unbuffered): 4.01 mg/mL (≈ 15.2 mM)
pH of saturated solution [1]: 2.22
Onset temperature of first cleavage ([2]; TG/DTA, higher crucible): 217 °C
Td ([2]; TG/DTA, higher crucible): 217 °C
Temp. range of 1st cleavage ([2]; TG/DTA, higher crucible): 198–252 °C
Onset temperature of first cleavage ([2]; TGA 7, shallow crucible): 224 °C
Td ([2]; TGA 7, shallow crucible): 224 °C
Temp. range of 1st cleavage ([2]; TGA 7, shallow crucible): 195–265 °C
Td (decomposition onset) [2]: 220 °C
pKa 2 (Sirius) [3]: 1.92
pKa 3 (Sirius) [3]: 2.42
pKa 4 (Sirius) [3]: 6.40
pKa [4, 8]: 0.62
pKa [4, 9]: 2.3
pKa [4, 10]: 6.44
pKa [4, 11]: 10.8
pKa [4, 12]: 12.1
logβx ± 3σ, x = 1 (H3L−) [4]: 6.44 ± 0.02
logβx ± 3σ, x = 2 (H4L) [4]: 8.74 ± 0.03
logβx ± 3σ, x = 3 (H5L+) [4]: 9.36 ± 0.51
logβx ± 3σ, x = −1 (HL3−) [4]: −10.78 ± 0.02
logβx ± 3σ, x = −2 (L4−) [4]: −22.83 ± 0.03
Structure (SMILES): NCCCCC(O)(P(=O)(O)O)P(=O)(O)O [Compound 3, (5-Amino-1-hydroxypentylidene)bisphosphonic acid]

Structure (SMILES): NCCCCCC(O)(P(=O)(O)O)P(=O)(O)O [Compound 4, (6-Amino-1-hydroxyhexylidene)bisphosphonic acid, reference compound]
solubility at 30 min [1]: 3.42 mg/mL (≈ 12.3 mM)
pH of saturated solution [1]: 2.26
solubility at 24 h ([5]; 4 °C, water): 4.47 mg/mL (≈ 16.1 mM)
solubility at 24 h ([5]; 7.6 °C, water): 4.6 mg/mL (≈ 16.6 mM)
solubility at 24 h ([5]; 21 °C, water): 5.17 mg/mL (≈ 18.7 mM)
solubility at 24 h ([5]; 30 °C, water): 5.77 mg/mL (≈ 20.8 mM)
solubility at 24 h ([5]; 40 °C, water): 7.62 mg/mL (≈ 27.5 mM)
solubility at 24 h ([5]; 50 °C, water): 9.55 mg/mL (≈ 34.5 mM)
Onset temperature of first cleavage ([2]; TG/DTA, higher crucible): 208 °C
Td ([2]; TG/DTA, higher crucible): 208 °C
Temp. range of 1st cleavage ([2]; TG/DTA, higher crucible): 196–260 °C
Onset temperature of first cleavage ([2]; TGA 7, shallow crucible): 215 °C
Td ([2]; TGA 7, shallow crucible): 215 °C
Temp. range of 1st cleavage ([2]; TGA 7, shallow crucible): 183–251 °C
Td (decomposition onset) [2]: 212 °C
logK, pKa3 ([6]; ref 4): 6.50
logK, pKa3 ([6]; ref 13): 5.49
logK, pKa2 ([6]; ref 4): 2.45
logK, pKa2 ([6]; ref 13): 2.90
logK, pKa4 ([6]; ref 4): 10.66
logK, pKa4 ([6]; ref 13): 8.63
logK, pKa5 ([6]; L4− + H+ ⇋ HL3−, ref 13): 10.9
solubility at 30 min ([7]; pH 0, aqueous buffer): 6.34 mg/mL (≈ 22.9 mM)
solubility at 30 min ([7]; pH 1, aqueous buffer): 3.84 mg/mL (≈ 13.9 mM)
solubility at 30 min ([7]; pH 2, aqueous buffer): 2.9 mg/mL (≈ 10.5 mM)
solubility at 30 min ([7]; pH 3, aqueous buffer): 2.97 mg/mL (≈ 10.7 mM)
solubility at 30 min ([7]; pH 4, aqueous buffer): 3.09 mg/mL (≈ 11.1 mM)
solubility at 30 min ([7]; pH 5, aqueous buffer): 3.22 mg/mL (≈ 11.6 mM)
solubility at 30 min ([7]; pH 6, aqueous buffer): 3.39 mg/mL (≈ 12.2 mM)
solubility at 30 min ([7]; pH 7, aqueous buffer): 3.42 mg/mL (≈ 12.3 mM)
solubility at 30 min ([7]; pH 8, aqueous buffer): 3.53 mg/mL (≈ 12.7 mM)
solubility at 30 min ([7]; pH 9, aqueous buffer): 3.08 mg/mL (≈ 11.1 mM)
solubility at 30 min ([7]; pH 10, aqueous buffer): 3.18 mg/mL (≈ 11.5 mM)
solubility at 30 min ([7]; pH 11, aqueous buffer): 3.38 mg/mL (≈ 12.2 mM)
pKa 2 (Sirius) [3]: 2.99
pKa 3 (Sirius) [3]: 6.36
pKa 4 (Sirius) [3]: 6.82
pKa ([4]; log K, pKa1 (H4L + H+ ⇋ H5L+), approximate values): 0.94
pKa ([4]; log K, pKa2 (H3L− + H+ ⇋ H4L)): 2.38
pKa ([4]; log K, pKa3 (H2L2− + H+ ⇋ H3L−)): 6.62
pKa ([4]; log K, pKa4 (HL3− + H+ ⇋ H2L2−)): 10.9
pKa ([4]; log K, pKa5 (L4− + H+ ⇋ HL3−)): 11.9
logβx ± 3σ, x = 1 (H3L−) [4]: 6.62 ± 0.02
logβx ± 3σ, x = 2 (H4L) [4]: 9.00 ± 0.03
logβx ± 3σ, x = 3 (H5L+) [4]: 9.94 ± 0.12
logβx ± 3σ, x = −1 (HL3−) [4]: −10.86 ± 0.02
logβx ± 3σ, x = −2 (L4−) [4]: −22.80 ± 0.02

solubility at 30 min ([1]; Milli-Q water, unbuffered): 2.1 mg/mL (≈ 6.88 mM)
pH of saturated solution [1]: 2.61
solubility at 24 h ([5]; Milli-Q water, unbuffered, 4 °C): 1.85 mg/mL (≈ 6.06 mM)
solubility at 24 h ([5]; Milli-Q water, unbuffered, 7.6 °C): 1.9 mg/mL (≈ 6.23 mM)
solubility at 24 h ([5]; Milli-Q water, unbuffered, 21 °C): 2.1 mg/mL (≈ 6.88 mM)
solubility at 24 h ([5]; Milli-Q water, unbuffered, 30 °C): 2.27 mg/mL (≈ 7.44 mM)
solubility at 24 h ([5]; Milli-Q water, unbuffered, 40 °C): 2.4 mg/mL (≈ 7.86 mM)
solubility at 24 h ([5]; Milli-Q water, unbuffered, 50 °C): 3.45 mg/mL (≈ 11.3 mM)
Onset temperature of first cleavage ([2]; TG/DTA, higher crucible): 193 °C
Td ([2]; TG/DTA, higher crucible): 193 °C
Temp. range of 1st cleavage ([2]; TG/DTA, higher crucible): 182–212 °C
Onset temperature of first cleavage ([2]; TGA 7, shallow crucible): 197 °C
Td ([2]; TGA 7, shallow crucible): 197 °C
Temp. range of 1st cleavage ([2]; TGA 7, shallow crucible): 175–222 °C
Td (decomposition onset) [2]: 195 °C
pKa 2 (Sirius) [3]: 3.10
pKa 3 (Sirius) [3]: 6.46
pKa 4 (Sirius) [3]: 7.12
pKa 5 (Sirius) [3]: 10.77
pKa [4, 8]: 1.08
pKa [4, 9]: 2.52
pKa [4, 10]: 6.75
pKa [4, 11]: 10.7
pKa [4, 12]: 11.7
logβx ± 3σ, x = 1 (H3L−) [4]: 6.75 ± 0.03
logβx ± 3σ, x = 2 (H4L) [4]: 9.27 ± 0.05
logβx ± 3σ, x = 3 (H5L+) [4]: 10.35 ± 0.24
logβx ± 3σ, x = −1 (HL3−) [4]: −10.67 ± 0.03
logβx ± 3σ, x = −2 (L4−) [4]: −22.32 ± 0.02
Structure (SMILES): NCCCCCCCC(O)(P(=O)(O)O)P(=O)(O)O [Compound 5, (8-Amino-1-hydroxyoctylidene)bisphosphonic acid]
